# Patent US6900202B2, “Di-substituted imineheterocyclic compounds” (priority 2000, dated 2005)
# Molecular target: T1, human α4β2 subtype of nicotinic acetylcholine receptors (Homo sapiens, UniProt P17787+P43681)
# T1 construct: expressed in transfected cells; host or cells: Xenopus laevis oocytes injected with hnACh-R α4 and β2 cRNA (pSP64 polyA vector)
# Assay type: cell-based
# Settings: response at 100 μM test compound, in comparison with response at 10 μM acetylcholine (100%); oocytes held at −50 mV
# Procedure: The agonist effect in human α4β2 subtype of nicotinic acetylcholine receptors are examined by using human nicotinic acetylcholine receptors prepared in oocytes of Xenopus laevis, which is injected with cRNA from the corresponding cloning cDNA of human α4 and β2 subunits of nicotinic acetylcholine receptors, and to measure the expression of the electric response by adding the test compounds to perfusion solution by means of membrane potential holding method.
# Agonist Activities at Human α4β2 Subtype of Nicotinic Acetylcholine Receptors
# The agonist activities of the compounds of the present invention at human α4β2 subtype of nicotinic acetylcholine receptors was evaluated by the following method, which was modified method described by Papke R. L., Thinschmidt J. S., Moulton B. A., Meyer E. M. & Poirier A., Br. J. Pharmacol., 120, 429-438 (1997).
# (1) Preparation of cRNA of Human α4β2 Subtype of Nicotinic Acetylcholine Receptors
# The cloning of human nicotinic acetylcholine receptor (hnACh-R) α4 cDNA and hnAC-R β2 cDNA were performed, in accordance with the conventional manners, by synthesizing the each DNA primers corresponding to the sequences of hnACh-R α4 cDNA and hnACh-R β2 cDNA [Monteggia L. M. et al., Gene, 155, 189-193 (1995); and Anand R., & Lindstrom J., Nucl. Acids Res., 18, 4272 (1990)], and obtained hnACh-R α4 cDNA and hnACh-R β2 cDNA by polymerase chain reaction (PCR), respectively. The obtained hnACh-R α4 cDNA and hnACh-R β2 cDNA were inserted to the cRNA expression vector (pSP64 polyA) having SP6 RNA promoter to construct hnACh-R α4/pSP64 polyA and hnACh-R β2/pSP64 polyA, respectively. After cutting from expression vector by restriction enzyme (EcoRI), transcription was performed by affecting SP6 RNA polymerase in the presence of cap analogues to obtain hnACh-R α4 cRNA and hnACh-R β2 cRNA, respectively.
# (2) Expression of Human α4β2 Subtype Nicotinic Acetylcholine Receptors in Xenopus Oocytes
# Oocytes were purchased from Kitanihonseibustukyohzai Co., Ltd., which were already enucleated from Xenopus laevis, and used in this experiment.
# The oocytes were treated with collagenase (Sigma type I; 1 mg/ml) in calcium-free modified Birth's solution (88 mM of NaCl, 1 mM of KCl, 2.4 mM of NaHCO3, 0.82 mM of MgSO4, 15 mM of HEPES, pH 7.6) under gently stirring at the room temperature for 90 minutes, and washed out the enzyme from the tissue. Then, oocytes were separated from ovarian follicle by tweezers, and isolated oocytes were placed in antibiotics containing modified Birth's solution (88 mM of NaCl, 1 mM of KCl, 2.4 mM of NaHCO3, 0.82 mM of MgSO4, 15 mM of HEPES, pH 7.6, and 0.1 v/v % of mixture solution containing of penicillin and streptomycin for incubation; Sigma Co.). Thus treated oocytes were injected with 50 nl of adjusted cRNAs (1.0 mg/ml), that is, each 50 ng of hnACh-R α4 cRNA and hnACh-R β2 cRNA per 1 oocyte by using automatic injector (NANOJECT; DRUMMOND […] CO.), and further incubated for 4-14 days at 19° C. In oocytes, heterogeneous quintuple [(α4)2(β2)3] was composed by translation of injected cRNAs, and ion channel receptors were constructed on cell membrane.
# (3) Agonist Activities at Human α4β2 Subtype of Nicotinic Acetylcholine Receptors
# The recordings of responses at human α4β2 subtype of nicotinic acetylcholine receptors by means of membrane potential holding method were performed as follow. […] Test compounds were added to the perfusion solution, and recorded the peak strength of induced inward electric current. […]
# T1 sequence (P43681 29-627 limits assumed): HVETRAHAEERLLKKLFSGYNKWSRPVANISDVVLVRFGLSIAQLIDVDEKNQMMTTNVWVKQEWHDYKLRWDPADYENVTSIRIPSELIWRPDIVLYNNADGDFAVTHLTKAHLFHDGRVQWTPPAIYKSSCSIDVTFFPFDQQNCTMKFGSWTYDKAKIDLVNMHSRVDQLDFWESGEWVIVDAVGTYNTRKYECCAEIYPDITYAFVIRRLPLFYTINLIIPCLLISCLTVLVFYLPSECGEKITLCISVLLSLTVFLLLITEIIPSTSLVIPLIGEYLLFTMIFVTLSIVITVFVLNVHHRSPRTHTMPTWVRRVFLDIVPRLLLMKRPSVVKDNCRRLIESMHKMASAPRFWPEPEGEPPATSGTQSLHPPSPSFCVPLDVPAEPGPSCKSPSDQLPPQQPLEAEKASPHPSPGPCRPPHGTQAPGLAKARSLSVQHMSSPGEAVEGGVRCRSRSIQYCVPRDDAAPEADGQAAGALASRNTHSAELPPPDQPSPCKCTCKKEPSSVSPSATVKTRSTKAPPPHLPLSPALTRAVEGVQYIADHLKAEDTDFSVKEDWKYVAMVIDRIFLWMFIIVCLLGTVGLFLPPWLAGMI
# T1 sequence (P17787 26-502): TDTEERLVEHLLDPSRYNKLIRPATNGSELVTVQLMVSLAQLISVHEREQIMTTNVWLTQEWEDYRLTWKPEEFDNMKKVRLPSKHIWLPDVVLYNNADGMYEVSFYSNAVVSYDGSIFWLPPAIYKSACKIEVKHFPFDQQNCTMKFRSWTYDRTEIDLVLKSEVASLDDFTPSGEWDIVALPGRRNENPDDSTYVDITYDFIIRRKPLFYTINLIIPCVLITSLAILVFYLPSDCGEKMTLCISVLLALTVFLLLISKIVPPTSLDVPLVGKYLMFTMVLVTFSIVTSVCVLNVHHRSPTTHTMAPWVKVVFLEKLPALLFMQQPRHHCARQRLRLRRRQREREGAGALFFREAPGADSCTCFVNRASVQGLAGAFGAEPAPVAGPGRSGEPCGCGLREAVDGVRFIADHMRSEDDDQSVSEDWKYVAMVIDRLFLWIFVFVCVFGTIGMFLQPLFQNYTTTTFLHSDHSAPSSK
row,Structure (SMILES),Agonist effect [%]
1,"Clc1ccc(C/N=C2\SCCN2Cc2ccc(Cl)nc2)cn1 [Compound 1, 3-(6-chloro-3-pyridyl)methyl-2-[(6-chloro-3-pyridyl)methyl]iminothiazolidine]",6
2,"Clc1ccc(C/N=C2\OCCCN2Cc2ccc(Cl)nc2)cn1 [Compound 2, 3-(6-chloro-3-pyridyl)methyl-2-[(6-chloro-3-pyridyl)-methyl]imino-3,4,5,6-tetrahydro-2H-1,3-oxazine]",27
3,"Clc1ccc(C/N=c2\sccn2Cc2ccc(Cl)nc2)cn1 [Compound 8, 3-(6-chloro-3-pyridyl)methyl-2-[(6-chloro-3-pyridyl)methyl]imino-2,3-dihydrothiazole]",11
4,"Cn1ccn(Cc2ccc(Cl)nc2)c1=N [Compound 13, 1-(6-chloro-3-pyridyl)methyl-2-imino-3-methyl-2,3-dihydroimidazole]",5
